Measurements published in patent US9580390B2, “Indazole compounds as kinase inhibitors and method of treating cancer with same” (University Health Network, priority 2011, dated 2017).
Like-named read-outs stand apart in the source and are kept apart here.

How the values were obtained:
[1] = system: colon cancer cells (HCT116); assay: Cancer cell line growth inhibition (SRB assay); format: cell-based; conditions: Homo sapiens, HCT-116, read-out: Cancer Cell Line GI50 Range HCT116
human TTK = target: T1, human TTK (Homo sapiens, UniProt P33981); assay: TTK inhibition assay (indirect ELISA); format: biochemical; conditions: read-out: TTK IC50 Range
T1 construct: amino terminal GST fusion of full length human TTK; purchased Invitrogen
T1 sequence (P33981 1-857): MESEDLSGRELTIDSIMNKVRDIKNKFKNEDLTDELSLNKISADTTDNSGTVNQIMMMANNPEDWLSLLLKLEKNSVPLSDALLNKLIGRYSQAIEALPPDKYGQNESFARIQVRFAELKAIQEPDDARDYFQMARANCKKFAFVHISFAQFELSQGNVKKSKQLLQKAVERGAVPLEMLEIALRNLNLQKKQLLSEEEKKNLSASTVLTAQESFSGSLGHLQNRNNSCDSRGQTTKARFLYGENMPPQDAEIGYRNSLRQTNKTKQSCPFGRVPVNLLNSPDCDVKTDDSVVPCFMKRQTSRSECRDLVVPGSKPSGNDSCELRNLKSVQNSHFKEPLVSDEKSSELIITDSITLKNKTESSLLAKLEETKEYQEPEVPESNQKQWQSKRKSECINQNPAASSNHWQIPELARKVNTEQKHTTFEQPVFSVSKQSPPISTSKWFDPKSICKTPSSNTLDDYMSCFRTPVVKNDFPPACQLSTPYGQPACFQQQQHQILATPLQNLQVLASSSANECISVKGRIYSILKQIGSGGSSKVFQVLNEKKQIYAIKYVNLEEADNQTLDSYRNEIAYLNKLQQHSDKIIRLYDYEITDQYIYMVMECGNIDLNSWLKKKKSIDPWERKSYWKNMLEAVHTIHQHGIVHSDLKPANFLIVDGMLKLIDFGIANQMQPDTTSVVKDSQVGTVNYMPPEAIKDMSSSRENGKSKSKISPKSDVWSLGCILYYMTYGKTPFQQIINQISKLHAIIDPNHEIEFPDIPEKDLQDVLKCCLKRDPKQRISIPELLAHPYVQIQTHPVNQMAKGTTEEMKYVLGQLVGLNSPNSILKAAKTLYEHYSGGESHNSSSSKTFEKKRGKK

[2] = system: ovarian cancer cells (PA-1); assay: Cancer cell line growth inhibition (SRB assay); format: cell-based; conditions: Homo sapiens, PA-1; read-out: Cancer Cell Line GI50 Range PA-1
[3] = HCT116 colon cancer cells, SRB assay

| IC50 (human TTK) | Structure (SMILES) | also measured |
| --- | --- | --- |
| 100 to 500 nM | O=C(Nc1ccc2[nH]nc(-c3ccc(CN4CCOCC4)cc3)c2c1)C1CCCc2ccccc21 (centres unmarked) [Example A23, N-(3-(4-(morpholinomethyl)phenyl)-1H-indazol-5-yl)-1,2,3,4-tetrahydronaphthalene-1-carboxamide] | GI50 [1, 3]: > 500 nM |
| < 100 nM | O=C(Nc1ccc2[nH]nc(-c3ccc(N4CCOCC4)nc3)c2c1)C(c1ccsc1)N1CCCC1 (centres unmarked) [Example A52, N-(3-(6-morpholinopyridin-3-yl)-1H-indazol-5-yl)-2-(pyrrolidin-1-yl)-2-(thiophen-3-yl)acetamide] | GI50 [1, 3]: 100 to 500 nM |
| < 100 nM | O=C(NC(c1ccccc1)C1CC1)c1ccc2[nH]nc(-c3ccc(N4CCOCC4)nc3)c2c1 (centres unmarked) [Example A54, N-(cyclopropyl(phenyl)methyl)-3-(6-morpholinopyridin-3-yl)-1H-indazole-5-carboxamide] | GI50 [1, 3]: > 500 nM |
| 100 to 500 nM | CN1CCC(Oc2ccc(-c3n[nH]c4ccc(NC(=O)Nc5ccccc5F)cc34)cc2)CC1 [Example A56, 1-(2-fluorophenyl)-3-(3-(4-((1-methylpiperidin-4-yl)oxy)phenyl)-1H-indazol-5-yl)urea] | GI50 [1, 3]: > 500 nM |
| 100 to 500 nM | O=C(NCC1(N2CCC(F)(F)CC2)CCCCC1)c1ccc2[nH]nc(-c3ccc(N4CCOCC4)cc3)c2c1 [Example A457, N-((1-(4,4-difluoropiperidin-1-yl)cyclohexyl)methyl)-3-(4-morpholinophenyl)-1H-indazole-5-carboxamide] | – |
| 100 to 500 nM | O=C(NCC1(N2CCOCC2)CCCC1)c1ccc2[nH]nc(-c3ccc(OC4CCOCC4)cc3)c2c1 [Example A477, N-((1-morpholinocyclopentyl)methyl)-3-(4-((tetrahydro-2H-pyran-4-yl)oxy)phenyl)-1H-indazole-5-carboxamide] | – |
| 100 to 500 nM | CN1CCC(Oc2ccc(-c3n[nH]c4ccc(C(=O)NCC5(N6CCOCC6)CCC5)cc34)cc2)CC1 [Example A479, 3-(4-((1-methylpiperidin-4-yl)oxy)phenyl)-N-((1-morpholinocyclobutyl)methyl)-1H-indazole-5-carboxamide] | – |
| < 100 nM | O=C(NCC1(N2CCOCC2)CCCOC1)c1ccc2[nH]nc(-c3ccc(N4CCOCC4)cc3)c2c1 (centres unmarked) [Example A515, 3-(4-morpholinophenyl)-N-((3-morpholinotetrahydro-2H-pyran-3-yl)methyl)-1H-indazole-5-carboxamide] | – |
| < 100 nM | CC(C)(C)C[C@H](NC(=O)c1ccc2[nH]nc(-c3ccc(N4CC(N5CCOCC5)C4)cc3)c2c1)c1ccccc1 [Example A520, (S)-N-(3,3-dimethyl-1-phenylbutyl)-3-(4-(3-morpholinoazetidin-1-yl)phenyl)-1H-indazole-5-carboxamide] | – |
| < 100 nM | CC(C)C[C@H](NC(=O)c1ccc2[nH]nc(-c3ccc(N4CC(N5CCOCC5)C4)cc3)c2c1)c1ccccc1 [Example A521, (S)-N-(3-methyl-1-phenylbutyl)-3-(4-(3-morpholinoazetidin-1-yl)phenyl)-1H-indazole-5-carboxamide] | – |
| < 100 nM | CC(C)[C@H](NC(=O)c1ccc2[nH]nc(-c3ccc(N4CC(N5CCOCC5)C4)cc3)c2c1)c1ncccc1F [Example A522, (S)-N-(1-(3-fluoropyridin-2-yl)-2-methylpropyl)-3-(4-(3-morpholinoazetidin-1-yl)phenyl)-1H-indazole-5-carboxamide] | – |

More lines, now with the values behind:

| Structure (SMILES) | IC50 (human TTK) | also measured |
| --- | --- | --- |
| Cc1cc(-c2n[nH]c3ccc(NC(=O)C(c4ccsc4)N4CCCC4)cc23)ccc1N1CCOCC1 (centres unmarked) [Example A59, N-(3-(3-methyl-4-morpholinophenyl)-1H-indazol-5-yl)-2-(pyrrolidin-1-yl)-2-(thiophen-3-yl)acetamide] | 100 to 500 nM | GI50 [1, 3]: > 500 nM |
| CCN(C(=O)Nc1ccc2[nH]nc(-c3ccc(N4CCOCC4)cc3)c2c1)c1ccccc1 [Example A72, 1-ethyl-3-(3-(4-morpholinophenyl)-1H-indazol-5-yl)-1-phenylurea] | > 500 nM | – |
| CN1CCN(c2ccc(-c3n[nH]c4ccc(NC(=O)C(c5ccsc5)N5CCCC5)cc34)cc2)C(=O)C1 (centres unmarked) [Example A94, N-(3-(4-(4-Methyl-2-oxopiperazin-1-yl)phenyl)-1H-indazol-5-yl)-2-(pyrrolidin-1-yl)-2-(thiophen-3-yl)acetamide] | > 500 nM | – |
| O=CN1CCC(Oc2ccc(-c3n[nH]c4ccc(C(=O)N[C@@H](c5ncccc5Cl)C5CC5)cc34)cc2)CC1 [Example A211, (R)-N-((3-chloropyridin-2-yl)(cyclopropyl)methyl)-3-(4-((1-formylpiperidin-4-yl)oxy)phenyl)-1H-indazole-5-carboxamide] | – | GI50 [1]: 100 to 500 nM; GI50 [2]: 100 to 500 nM |
| C[C@@H]1C[C@H](Oc2ccc(-c3n[nH]c4ccc(C(=O)NCC5(N6CCOCC6)CCCC5)cc34)cc2)C[C@H](C)O1 [Example A430, (4-(((2R,4R,6S)-2,6-dimethyltetrahydro-2H-pyran-4-yl)oxy)phenyl)-N-((1-morpholinocyclopentyl)methyl)-1H-indazole-5-carboxamide] | 100 to 500 nM | – |
| O=C(NCC1(N2CCC(F)CC2)CCCCC1)c1ccc2[nH]nc(-c3ccc(N4CCOCC4)cc3)c2c1 [Example A456, N-((1-(4-fluoropiperidin-1-yl)cyclohexyl)methyl)-3-(4-morpholinophenyl)-1H-indazole-5-carboxamide] | 100 to 500 nM | – |
| C[C@@H]1CC(CNC(=O)c2ccc3[nH]nc(-c4ccc(OC5CCN(C)CC5)cc4)c3c2)(N2CCOCC2)C[C@H](C)O1 (stereo partly drawn) [Example A475, N-(((2R,6S)-2,6-dimethyl-4-morpholinotetrahydro-2H-pyran-4-yl)methyl)-3-(4-((1-methylpiperidin-4-yl)oxy)phenyl)-1H-indazole-5-carboxamide] | 100 to 500 nM | – |
| CN1CCC(Oc2ccc(-c3n[nH]c4ccc(C(=O)NCC5(CN6CCOCC6)CC5)cc34)cc2)CC1 [Example A498, 3-(4-((1-methylpiperidin-4-yl)oxy)phenyl)-N-((1-(morpholinomethyl)cyclopropyl)methyl)-1H-indazole-5-carboxamide] | 100 to 500 nM | – |
| O=C(NCC1(N2CCOCC2)CCCOC1)c1ccc2[nH]nc(-c3ccc(N4[C@@H]5CC[C@H]4C[C@H](O)C5)cc3)c2c1 (stereo partly drawn) [Example A516, 3-(4-((1R,3S,5S)-3-hydroxy-8-azabicyclo[3.2.1]octan-8-yl)phenyl)-N-((3-morpholinotetrahydro-2H-pyran-3-yl)methyl)-1H-indazole-5-carboxamide] | < 100 nM | – |
| O=C(NCC1(N2CCOCC2)CCCOC1)c1ccc2[nH]nc(-c3ccc(N4[C@@H]5CC[C@H]4COC5)cc3)c2c1 (stereo partly drawn) [Example A517, 3-(4-((1R,5S)-3-oxa-8-azabicyclo[3.2.1]octan-8-yl)phenyl)-N-((3-morpholinotetrahydro-2H-pyran-3-yl)methyl)-1H-indazole-5-carboxamide] | < 100 nM | – |
| CC(C)C[C@H](NC(=O)c1ccc2[nH]nc(-c3ccc(N4C5CCC4CC(O)C5)cc3)c2c1)c1ccccc1F (stereo partly drawn) [Example A518, N-((S)-1-(2-fluorophenyl)-3-methylbulyl)-3-(4-((1R,3S,5S)-3-hydroxy-8-azabicyclo[3.2.1]octan-8-yl)phenyl)-1H-indazole-5-carboxamide] | < 100 nM | – |
| CC(C)C[C@H](NC(=O)c1ccc2[nH]nc(-c3ccc(N4[C@@H]5CC[C@H]4COC5)cc3)c2c1)c1ccccc1F [Example A519, 3-(4-((1R,5S)-3-oxa-8-azabicyclo[3.2.1]octan-8-yl)phenyl)-N-((S)-1-(2-fluorophenyl)-3-methylbutyl)-1H-indazole-5-carboxamide] | < 100 nM | – |
